In patent US10632095B2 (Zoetis Services LLC, priority 2013, dated 2020):
Read-outs that look alike come from different tables or passages of the source.

Legend:
bradykinin = details: Julou 1976; cited from earlier work
swine COX-2 = swine COX-2 (Sus scrofa, UniProt Q8SPR3); test: Porcine alveolar macrophage COX inhibitor assay (PGE2 read-out); type: cell-based; details: for IC90: read-out: COX-2 IC90
Experimental: (§1) Alveolar macrophages were treated with a lipopolysaccharide (LPS), in the presence of varying amounts of inhibitors, to produce thromboxane B2 (TXB2) and/or prostaglandin E2 (PGE2). […] Each drug was tested in three different experiments on three different days (at a minimum).

bovine COX-2 = biological target: T1, bovine COX-2 (Bos taurus, UniProt O62698); test: Bovine in vitro whole blood COX inhibitor assay (PGE2); type: cell-based
T1 construct: using a bovine whole blood assay; from tissue; host or cells: heparinized bovine whole blood, LPS-treated
T1 sequence (O62698 18-604): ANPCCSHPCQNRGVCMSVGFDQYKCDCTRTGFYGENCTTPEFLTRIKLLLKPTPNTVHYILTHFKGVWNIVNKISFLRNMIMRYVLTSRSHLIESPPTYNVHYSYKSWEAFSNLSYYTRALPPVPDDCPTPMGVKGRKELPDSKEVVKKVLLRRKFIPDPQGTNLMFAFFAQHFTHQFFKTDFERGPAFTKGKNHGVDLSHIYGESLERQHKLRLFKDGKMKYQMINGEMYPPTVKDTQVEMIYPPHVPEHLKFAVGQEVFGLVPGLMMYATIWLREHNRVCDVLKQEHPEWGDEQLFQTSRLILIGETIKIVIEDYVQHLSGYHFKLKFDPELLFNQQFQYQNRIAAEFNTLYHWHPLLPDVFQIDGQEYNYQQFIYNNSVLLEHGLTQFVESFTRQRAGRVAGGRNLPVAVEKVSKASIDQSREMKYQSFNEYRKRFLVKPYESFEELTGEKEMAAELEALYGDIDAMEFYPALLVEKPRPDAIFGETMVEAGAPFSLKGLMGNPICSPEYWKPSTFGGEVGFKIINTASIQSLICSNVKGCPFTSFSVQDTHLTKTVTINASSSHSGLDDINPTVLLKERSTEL
Experimental: (§2) Briefly, heparinized blood was collected for both assays. The COX-1 assay involved treatment of the blood with protamine; to reverse the anti-coagulation effects of heparin; thus, inducing clotting and production of Thromboxane B2 (TXB2). The COX-2 assay involved treatment of blood with LPS to produce PGE2. Both assays included the presence of varying amounts of inhibitors, to inhibit the TXB2 or PGE2. […] Percent inhibition was calculated from the raw data for each drug dose based on the mean of the TXB2 or PGE2 concentrations. Then the mean % inhibition curves (% inhibition versus drug concentration) were analyzed via non-linear regression to yield individual IC50 and IC90 values.

swine COX-1 = swine COX-1 (Sus scrofa, UniProt A0A287ANF9); test: Porcine alveolar macrophage COX inhibitor assay (TXB2 read-out); type: cell-based; details: for IC90: read-out: COX-1 IC90
Experimental: as §1

bovine COX-1 = biological target: T2, bovine COX-1 (Bos taurus, UniProt O62664); test: Bovine in vitro whole blood COX inhibitor assay (TXB2); type: cell-based
T2 construct: using a bovine whole blood assay; from tissue; host or cells: heparinized bovine whole blood, protamine-treated to induce clotting
T2 sequence (O62664 25-600): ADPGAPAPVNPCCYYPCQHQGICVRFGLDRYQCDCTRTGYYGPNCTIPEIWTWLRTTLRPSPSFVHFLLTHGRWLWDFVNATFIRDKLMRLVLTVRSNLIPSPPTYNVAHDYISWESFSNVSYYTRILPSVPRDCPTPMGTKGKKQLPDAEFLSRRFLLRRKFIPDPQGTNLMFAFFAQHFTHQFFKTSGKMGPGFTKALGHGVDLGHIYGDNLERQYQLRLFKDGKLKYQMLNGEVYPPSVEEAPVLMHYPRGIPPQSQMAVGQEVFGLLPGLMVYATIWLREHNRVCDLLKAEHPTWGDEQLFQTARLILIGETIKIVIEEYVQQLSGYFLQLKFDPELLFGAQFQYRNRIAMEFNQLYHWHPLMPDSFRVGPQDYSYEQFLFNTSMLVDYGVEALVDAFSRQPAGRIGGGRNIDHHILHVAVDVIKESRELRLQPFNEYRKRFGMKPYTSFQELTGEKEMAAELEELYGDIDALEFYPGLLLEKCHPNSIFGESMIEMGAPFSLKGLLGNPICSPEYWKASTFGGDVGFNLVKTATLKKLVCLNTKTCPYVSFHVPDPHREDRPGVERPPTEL
Experimental: as §2

LPS-induced lameness = test: LPS-induced swine synovitis model; type: in vivo; details: validation study, 2.2 mg/kg, IM
[1] = Hydrolysis in swine liver microsomes; type: in vitro ADME
[2] = tested on: swine influenza virus (SIV)-induced fever; type: in vivo
[3] = Hydrolysis in swine plasma; type: in vitro ADME
[4] = read-out: COX-2 IC50, LPS-treated porcine alveolar macrophages, PGE2 by ELISA, 21-24 hours incubation
[5] = read-out: COX-1 IC50, LPS-treated porcine alveolar macrophages, TXB2 by ELISA, 21-24 hours incubation
[6] = LPS-treated porcine alveolar macrophages, PGE2 by ELISA, 21-24 hours incubation, read-out: COX-2 IC50
[7] = LPS-treated porcine alveolar macrophages, PGE2 by ELISA, 21-24 hours incubation
[8] = LPS-treated porcine alveolar macrophages, TXB2 by ELISA, 21-24 hours incubation, read-out: COX-1 IC50
[9] = LPS-treated porcine alveolar macrophages, TXB2 by ELISA, 21-24 hours incubation

Chain of swine COX-1 (A0A287ANF9 25-600): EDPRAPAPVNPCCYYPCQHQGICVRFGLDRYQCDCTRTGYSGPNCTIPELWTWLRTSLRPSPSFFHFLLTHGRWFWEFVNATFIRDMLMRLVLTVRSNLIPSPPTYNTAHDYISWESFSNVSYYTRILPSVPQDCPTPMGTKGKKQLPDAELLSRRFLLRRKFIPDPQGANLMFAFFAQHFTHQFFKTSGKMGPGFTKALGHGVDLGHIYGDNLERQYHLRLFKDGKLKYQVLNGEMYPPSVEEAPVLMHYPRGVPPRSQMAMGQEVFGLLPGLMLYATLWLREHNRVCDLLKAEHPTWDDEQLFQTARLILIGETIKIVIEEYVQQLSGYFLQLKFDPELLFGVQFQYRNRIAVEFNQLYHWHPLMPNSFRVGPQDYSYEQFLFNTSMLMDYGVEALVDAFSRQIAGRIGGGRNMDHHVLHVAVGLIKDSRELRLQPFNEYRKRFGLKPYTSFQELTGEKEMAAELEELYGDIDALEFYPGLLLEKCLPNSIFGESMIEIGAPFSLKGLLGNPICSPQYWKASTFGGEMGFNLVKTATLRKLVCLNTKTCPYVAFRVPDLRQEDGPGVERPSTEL
Chain of swine COX-2 (Q8SPR3 entry or part of it): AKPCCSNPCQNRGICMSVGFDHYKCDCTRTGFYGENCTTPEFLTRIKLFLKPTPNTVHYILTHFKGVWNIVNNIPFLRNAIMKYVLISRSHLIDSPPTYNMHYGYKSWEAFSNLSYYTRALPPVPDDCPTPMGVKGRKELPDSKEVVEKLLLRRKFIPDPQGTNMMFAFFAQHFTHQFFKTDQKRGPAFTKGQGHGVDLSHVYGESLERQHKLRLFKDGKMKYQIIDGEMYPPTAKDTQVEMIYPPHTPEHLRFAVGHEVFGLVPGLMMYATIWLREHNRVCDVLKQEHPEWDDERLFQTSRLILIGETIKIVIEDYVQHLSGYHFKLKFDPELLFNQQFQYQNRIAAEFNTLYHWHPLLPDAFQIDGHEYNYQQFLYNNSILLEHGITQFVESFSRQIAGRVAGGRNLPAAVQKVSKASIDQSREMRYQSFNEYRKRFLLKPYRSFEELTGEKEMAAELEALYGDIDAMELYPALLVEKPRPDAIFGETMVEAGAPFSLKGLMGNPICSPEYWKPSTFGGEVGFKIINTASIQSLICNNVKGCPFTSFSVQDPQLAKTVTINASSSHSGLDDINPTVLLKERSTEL

SMILES	IC50 (swine COX-2; [4]) [µM]	IC90 (swine COX-2) [µM]	IC50 (swine COX-1; [5]) [µM]	IC90 (swine COX-1) [µM]	IC50 (swine COX-1; [8]) [µM]	hydrolysis in swine liver microsomes [1]	hydrolysis in swine plasma [3]	further results
CC(C(=O)O)c1cccc(C(=O)c2ccccc2)c1 (racemic) [Ketoprofen, 2-(3-benzoylphenyl)-propionic acid]	0.006	0.08	0.007	0.08	–	–	–	functional bradykinin antagonist activity, effects greater than indomethacin (bradykinin): 8 times; IC50 (swine COX-2; read-out: IC50 against swine ortholog of COX-2, one range given for COX-1 and COX-2): 0.006 to 0.007 µM; IC50 (bovine COX-2; read-out: IC50 against bovine COX-2): 0.22 µM; IC50 (swine COX-1; read-out: IC50 against swine ortholog of COX-1, one range given for COX-1 and COX-2): 0.006 to 0.007 µM; IC50 (bovine COX-1): 0.03 µM
C[C@H](C(=O)O)c1cccc(C(=O)c2ccccc2)c1 (single isomer, unassigned) [Ketoprofen (S)-enantiomer]	–	–	–	–	0.002	–	–	IC50 (swine COX-2; [6]): 0.001 µM; IC90 (swine COX-2; [7]): 0.04 µM; IC90 (swine COX-1; [9]): 0.06 µM
CC(C(=O)O)c1ccc2c(c1)[nH]c1ccc(Cl)cc12 (stereo not shown) [Carprofen]	3.17	39	–	58.4	5.05	–	–	–
Cc1c(Nc2ncccc2C(=O)O)cccc1C(F)(F)F [Flunixin]	–	–	0.066	–	–	–	–	IC50 (swine COX-2; [6]): 0.033 µM; IC90 (swine COX-2; [7]): 0.507 µM; IC90 (swine COX-1; [9]): 0.747 µM; reduction of LPS-induced lameness (LPS-induced lameness): effective at reducing LPS-induced lameness
COC(=O)C(C)c1cccc(C(=O)c2ccccc2)c1 (stereo not shown) [Formula 1, methyl 2-(3-benzoylphenyl)propanoate]	0.13	0.84	0.26	1.68	–	hydrolyzed rapidly	moderately or slowly	anti-pyretic activity continues through (post-dose) ([2]; 6 mg/kg IM in Miglyol 812): ≥ 72 h; activity compared with vehicle at t=35 hours (11 hours post-dose) ([2]; Formula 1 4, 5, 6 mg/kg IM, Banamine 2.2 mg/kg IM): remained active; fever reduction compared with vehicle ([2]; young gilts, in Miglyol 812, 4, 5, 6 mg/kg IM, 24 hours after SIV, all timepoints from 1 hour post-dose): significantly reduced fever; onset of anti-pyretic efficacy post-dose ([2]; young gilts, in Miglyol 812, 4, 5 and 6 mg/kg IM): 1 h; potency relative to Meloxicam (swine COX-2; swine COX, Table 1): about 5 times; IC50 (bovine COX-2): 0.29 µM; IC90 (bovine COX-2; read-out: IC90 COX-2): 2.29 µM; IC50 (bovine COX-1): 0.5 µM; IC90 (bovine COX-1; read-out: IC90 COX-1): 3.1 µM
CCOC(=O)C(C)c1cccc(C(=O)c2ccccc2)c1 (stereo not shown) [Formula 2, ethyl 2-(3-benzoylphenyl)propanoate]	–	–	–	–	–	hydrolyzed rapidly	moderately or slowly	–
CC(C(=O)OCCNC(=O)c1cccnc1)c1cccc(C(=O)c2ccccc2)c1 (stereo not shown) [Formula 3, 2-(nicotinamido)ethyl 2-(3-benzoylphenyl)propanoate]	0.12	0.93	0.15	4.86	–	hydrolyzed rapidly	moderately or slowly	–
Cc1cnc(NC(=O)C2=C(O)c3ccccc3S(=O)(=O)N2C)s1 [Meloxicam]	0.56	9	–	49.3	1.02	–	–	–
